What was measured:
[1] = SOD-like activity (SOD Test Wako kit); type: biochemical
Procedure: Resveratrol 3-O-α-glucoside was dissolved in a 15% ethanol solution to a concentration of 5, 10, or 20 mmol/L, and the resulting solution was used as a sample solution.
Using the sample solution prepared as above, the SOD-like activity was evaluated using an SOD measurement kit (SOD Test Wako; Wako Pure Chemical Industries, Ltd.).

IL-1β gene = assay: Anti-inflammatory effect: IL-1β gene expression after Poly I:C-induced inflammation; type: cell-based; details: normal human epidermal keratinocytes, Poly I:C 1 μg/mL 9 hours, then 0.001 wt % for 15 hours; control = 100%, comparative group (Poly I:C only) 1210
Procedure: Normal human epidermal keratinocytes were seeded into 12-well culture plates at 5×10^4 cells per well. As the medium, EpiLife KG-2 medium supplemented with insulin, the human […] growth factor (hEGF), hydrocortisone, anti-microbial agents, and bovine pituitary extract (BPE) was used (basal medium), and the cells were preincubated in 5% CO2 at 37° C. for 48 hours. Further, the cells were incubated for additional 48 hours in a medium obtained by removing hydrocortisone only from the basal medium (assay medium). Next, the medium was replaced with an inflammation-inducing medium obtained by supplementing the assay medium with Poly I:C (double strand of inosine ribonucleotide and cytidine ribonucleotide strands) to a concentration of 1 μg/mL, and the cells were cultured for 9 hours, thus preparing an inflammation model. […] After the culture, total RNA was extracted from the cells, and the level of expression of the proinflammatory cytokine IL-1β gene was quantified by real time PCR. […]
Taking as 100% the level of expression of the IL-1β gene for the control group, a relative ratio of the expression level of the IL-1β gene for each of the comparative group and the resveratrol 3-O-α-glucoside-supplemented group (IL-1β gene expression ratio, %) was calculated. […]

[2] = Storage stability in 30 vol % aqueous ethanol (coloration, residual content); type: physicochemical; details: 2 mM in 30 vol % aqueous ethanol, 40° C., light-tight, 6 months
Procedure: Each of resveratrol 3-O-α-glucoside (produced in Production Example 1), resveratrol (Tokyo Chemical Industry Co., Ltd.), and resveratrol 4′-O-α-glucoside (produced in Production Example 1) was dissolved in a 30 vol % aqueous solution of ethanol to a concentration of 2 mM, and the solution was stored at 40° C. under light-tight conditions. The coloration of the solution after being stored for 6 months was visually observed. Further, absorbances at 430 nm of the solution before and after the storage were measured, and the residual amount of each of the components in the solution was analyzed using HPLC. HPLC was performed under the same conditions as those described in Production Example 1.

sirtuin 1 gene = assay: Sirtuin 1 gene expression-promoting effect (1); type: cell-based; details: normal human epidermal keratinocytes, 0.02 wt %, 72 hours; control = 100%
Procedure: Normal human epidermal keratinocytes were seeded into 12-well culture plates at 7.5×10^4 cells per well. As the medium, EpiLife KG-2 medium supplemented with insulin, hEGF, hydrocortisone, anti-microbial agents, and BPE was used (basal medium), and the cells were preincubated in 5% CO2 at 37° C. for 72 hours. The medium was removed and then replaced with a sample medium supplemented with resveratrol 3-O-α-glucoside to a concentration of 0.02 wt %, and the cells were cultured in 5% CO2 at 37° C. After 72 hours, total RNA was extracted from the cells, and the level of expression of the sirtuin 1 gene was quantified by real time PCR. As a control group, cells were cultured without resveratrol 3-O-α-glucoside, and total RNA collected from these cells was used.
Taking as 100% the level of expression of the sirtuin 1 gene for the control group, a relative ratio of the expression level of the sirtuin 1 gene for the resveratrol 3-O-α-glucoside-supplemented group (SIRT 1 gene expression ratio, %) was determined. In the measurement of the expression level of the sirtuin 1 gene, PPIA was used for internal standard correction.

[3] = DPPH radical scavenging effect; type: biochemical
Procedure: Resveratrol 3-O-α-glucoside was dissolved in water to a concentration of 100, 250, 500, or 1000 μmol/L, and the resulting solution was used as a sample solution.
In 10 mL of ethanol, 2 mg of 2,2-diphenyl-1-picrylhydrazyl (Wako Pure Chemical Industries, Ltd.) was dissolved, and the resulting solution was used as the DPPH solution.
Using each of the solutions prepared as above, the DPPH radical scavenging effect was evaluated in accordance with the following procedures. One-hundred microliters of the sample solution, 500 μL, of the DPPH solution, 250 μL of a […] MES (2-morpholinoethanesulfonic acid) buffer, and 150 μL of distilled water were mixed and reacted at 30° C. for 30 minutes. The absorbance at 517 nm was subsequently measured. Further, distilled water (control solution) was used instead of the sample solution, and the absorbance at 517 nm was measured under the same conditions as described above. From the measured value of absorbance, the DPPH radical scavenging ratio was determined in accordance with the equation shown below. DPPH radical scavenging ratio (%)=(A−B)/A×100 [Equation 2]

[4] = Non-Patent Literature 3; cited from earlier work

Compound | SOD-Like Activity (%) ([1]; 5 mmol/L in the sample solution (15% ethanol)) | SOD-Like Activity (%) ([1]; 10 mmol/L in the sample solution (15% ethanol)) | SOD-Like Activity (%) ([1]; 20 mmol/L in the sample solution (15% ethanol)) | IL-1β Gene Expression Ratio (%) (IL-1β gene) | Coloration: Difference between Absorbances at 430 nm (Δ A 430) before and after Storage [2] | Coloration: Visual Observation [2] | Residual Content (%) ([2]; HPLC) | SIRT 1 Gene Expression Ratio (%) (sirtuin 1 gene) | DPPH Radical Scavenging Ratio (%) ([3]; 100 μmol/L in the sample solution) | DPPH Radical Scavenging Ratio (%) ([3]; 250 μmol/L in the sample solution) | DPPH Radical Scavenging Ratio (%) ([3]; 500 μmol/L in the sample solution) | DPPH Radical Scavenging Ratio (%) ([3]; 1000 μmol/L in the sample solution) | water solubility [4] | water solubility relative to that of resveratrol [4]
OC[C@H]1O[C@H](Oc2cc(O)cc(C=Cc3ccc(O)cc3)c2)[C@H](O)[C@@H](O)[C@@H]1O [Resveratrol 3-O-α-Glucoside, resveratrol 3-O-α-glucoside] | 18 | 35 | 47 | 885 | 0.03 | colorless | 93 | 171 | 13 | 30 | 50 | 75 |  | 
OC[C@H]1O[C@@H](Oc2cc(O)cc(/C=C/c3ccc(O)cc3)c2)[C@H](O)[C@@H](O)[C@@H]1O [Resveratrol 3-O-β-Glucoside, resveratrol 3-O-β-glucoside] |  |  |  |  |  |  |  |  |  |  |  |  | approximately 400 μg/mL | approximately 10 fold

Reference: US10149809B2, “Skin aging inhibitor and concentrate of resveratrol 3-O-α-glucoside” (priority 2014, dated 2018)
